Data set [1] concerns IGROV-1 ovarian carcinoma. The data set is described as follows: In vitro cytotoxicity, 72 hr continuous exposure, methylene blue staining. The format is cell-based, human. Here is the method:
(§1) Cytotoxicity was assayed using varying concentrations of ALD (0.1-200 μM) under standard 72 hr, continuous exposure, in 96-multiwell assays. Growth rate was assessed colorimetrically based on methylene blue staining and data was obtained with an automatic plate reader and IC50 values were determined
Cytotoxicity was assayed as described above in Example 1.

The subject of a further data set is KB-hiFR. The data set is described as above. As to conditions: for IC50: KB-hiFR, 72 hr continuous exposure. Type of data set: cell-based, human. How it is done:
as §1

The subject of data set [2] is N87 human gastric carcinoma cells. The data set is described as above. Type of data set: cell-based. The note with it: N-87. How it is done:
as §1

For a further data set, the system named is KG-1 cells. The data set is described as follows: PKH26/AnnexinV flow cytometry of KG-1 cells co-cultured with γδ T-cells. The format is cell-based, human. As to conditions: 20 μg/mL (Doxil 13.3 μg/mL) 24 h, then 4 h with γδ T-cells 1:1 or 1:5, 100 U/mL IL-2. How it is done:
The following method is based on the procedure described by Fischer and Mackensen (2003) The flow cytometric PKH-26 assay for the determination of T-cell mediated cytotoxic activity. Methods 31: 135-142.
Specifically, 1×10^5 KG-1 cells, previously stained with PKH26 Red Fluorescent, were plated in a 24 well plate in 1 mL of complete media. These cells were then treated with different preparations: • (i) 20 μg/mL Alendronate (free Alendronate) • (ii) 20 μg/mL of liposomal Alendronate+Doxorubicin (L-ALD/DOX), • (iii) 20 μg/mL of folate targeted liposomal Alendronate+Doxorubicin (FR-L-ALD/DOX); • (iv) 13.3 μg/mL Doxil (the amount of doxorubicin correspondent to doxorubicin in L-ALD/DOX) • (v) Empty liposomes (stealth) • (vi) Control—no treatment.
Cells were incubated for 24 h at 37° C. with a treatment formulation according to the above groups. After 24 h, each group of treated KG-1 cells was co-cultured with γδ T_cells at a ratio of 1 tumor cell to 1 γδ T-cell and at 1 tumor cell to 5 γδ T-cells. In addition, 100 U/mL of IL-2 was also given to each treatment group. […]
After 4 h incubation, the cell cultures were stained with AnnexinV FITC (BD) in order to measure the percentage of apoptotic cells. The samples were analysed by flow cytometry and the principle is that tumor cell death is measured by analysing PKH26^+AnnexinV^+ cells.
On the technique in general: Flow cytometry measures light scatter and fluorescence of single cells or particles in a stream.

The test system of data set [3] is M109R (doxorubicin resistant) carcinoma. Type of data set: in vivo, mouse. As to conditions: M109R footpad tumor, i.v. 5 mg/kg doxorubicin or equivalent ALD, D7, D14, D21.
Protocol: The tumor model used here is the mouse M109R (doxorubicin resistant) carcinoma.
M109R tumor cells (10^6 cells/0.05 ml) were inoculated into the subcutaneous space of the mouse right hind footpad. Five to 7 days after inoculation, mice injected with M109R cells developed solid tumors as measured by the increased thickening of the footpad. Different liposomes were injected i.v. at dose levels of 5 mg/kg based on Doxorubicin content or an amount of Alendronate equivalent to that present in the co-encapsulated formulation at doxorubicin dose of 5 mg/kg. […] Treatment was administered on Day 7 (D7), Day 14 (D14) and Day 21 (D21). Kaplan-Meyer curves were based on an experimental endpoint of tumor size equal or greater than 4 mm.

2 compounds from patent US10085940B2, “Liposomes co-encapsulating a bisphosphonate and an amphipathic agent” (YISSUM RESEARCH DEVELOPMENT COMPANY OF THE HEBREW …, priority 2011, dated 2018) can be followed below.

Molecules are shown by their SMILES.

Consider `COc1cccc2c1C(=O)c1c(O)c3c(c(O)c1C2=O)C[C@@](O)(C(=O)CO)C[C@@H]3O[C@H]1C[C@H](N)[C@H](O)[C@H](C)O1` [Free DOX, doxorubicin], for which the IC50 came to 250 nM in data set [1], 40 nM with KB-hiFR and 3.12 µM in data set [2].
In the case of `NCCCC(O)(P(=O)(O)O)P(=O)(O)O` [Free ALD, 4-amino-1-hydroxybutylidene-1,1-bisphosphonic acid], the “tumor cell killing / sensitivity to γδ T-cells (PKH26+AnnexinV+ cells)” value in the data set with KG-1 cells is “enhances tumour sensitivity to γδ T-cells' cytotoxic action”. In addition, the IC50 in the data set on KB-hiFR (Homo sapiens) was > 20000 nM. Further, the “cytotoxicity (in words)” value with KB-hiFR (stated for KB, N87 and IGROV cell lines together (FIGS. 3B-3D)) is given as “essentially no cytotoxicity”. Further, in data set [3], the anti-tumor activity result is given as “no anti-tumor effect”.

What is called IC50 is the concentration that inhibits the measured activity by half. The low end stands for higher potency, the high end for lower potency.
